Reference: PMC10374582, “A BAHD-type acyltransferase concludes the biosynthetic pathway of non-bitter glycoalkaloids in ripe tomato fruit” (Nature Communications, 2023)

Columns and labels:
[1] = molecular target: T1, SlGAME36 (Solanum lycopersicum, UniProt A0A3Q7HQH1); experiment: LC-MS steady-state kinetics; assay type: biochemical; conditions: pH 7.5, 30 °C
T1 construct: gene LOC101247356; pET28/pET28b, E. coli BL21 (DE3), Ni-NTA purified His-tagged protein
Source text: (§1) LC-MS steady-state kinetics on SlGAME36 | higher catalytic efficiency with hydroxytomatine (native substrate from tomato | hydroxysolamargine (SGA substrate from eggplant | preferred specificity toward acetyl CoA over butyryl CoA

[2] = system: C[C@@H]1CNC2(O[C@H]3C[C@H]4[C@@H]5CC[C@H]6C[C@@H](O[C@@H]7O[C@H](CO)[C@H](O[C@@H]8O[C@H](CO)[C@@H](O)[C@H](O[C@@H]9OC[C@@H](O)[C@H](O)[C@H]9O)[C@H]8O[C@@H]8O[C@H](CO)[C@@H](O)[C@H](O)[C@H]8O)[C@H](O)[C@H]7O)CC[C@]6(C)[C@H]5CC[C@]4(C)[C@H]3[C@@H]2C)C(O)C1; experiment: LC-MS steady-state kinetics; assay type: biochemical, Solanum lycopersicum; conditions: 500 µM acetyl CoA, pH 7.5, 30 °C
Source text: as §1

[3] = molecular target: T2, SlGAME40 (Solanum lycopersicum, UniProt P10967); experiment: LC-MS product detection, sequential one-tube assay; assay type: biochemical; conditions: acetoxytomatine formed in situ by GAME31 and GAME36; α-ketoglutarate, ascorbate, Fe2+; pH 7.5, 30 °C
T2 construct: gene ACO3; purified recombinant from E. coli

## hydroxysolamargine
[1]; 500 µM acetyl CoA
  Km: 7.89 µM

## CC(=O)SCCNC(=O)CCNC(=O)[C@H](O)C(C)(C)COP(=O)(O)OP(=O)(O)OC[C@H]1O[C@@H](n2cnc3c(N)ncnc32)[C@H](O)[C@@H]1OP(=O)(O)O [acetyl CoA]
[1]; 100 µM hydroxytomatine
  Km: 24.2 µM

## CCCC(=O)SCCNC(=O)CCNC(=O)[C@H](O)C(C)(C)COP(=O)(O)OP(=O)(O)OC[C@H]1O[C@@H](n2cnc3c(N)ncnc32)[C@H](O)[C@@H]1OP(=O)(O)O [butyryl CoA]
[1]; 100 µM hydroxytomatine
  Km: 60.4 µM

## SlGAME36 (Solanum lycopersicum)
[2]
  Km: 14.43 µM
  kcat: 60.25 s⁻¹

## CC(=O)OC1C[C@H](C)CNC12O[C@H]1C[C@H]3[C@@H]4CC[C@H]5C[C@@H](O[C@@H]6O[C@H](CO)[C@H](O[C@@H]7O[C@H](CO)[C@@H](O)[C@H](O[C@@H]8OC[C@@H](O)[C@H](O)[C@H]8O)[C@H]7O[C@@H]7O[C@H](CO)[C@@H](O)[C@H](O)[C@H]7O)[C@H](O)[C@H]6O)CC[C@]5(C)[C@H]4CC[C@]3(C)[C@H]1[C@@H]2C (stereo partly drawn) [acetoxytomatine]
[3]
  LC-MS product detection, sequential one-tube assay: Sequential assays produced explicitly the expected pathway intermediates
